The source made the active and inactive calls.
Key:
Assay type in all cases: functional, organism-based
Mus musculus [1] = experiment: Antifibrotic activity in C57BL/6 mouse model of bleomycin-induced lung fibrosis assessed as reduction in hydroxyproline in lung homogenates at 60 mg/kg, po pre-treated 1 hr to 1 day before bleomycin injection and measured after 14 to 28 days by chloramine T and Erlich's solution based assay
Mus musculus [2] = experiment: Antifibrotic activity in C57BL/6 mouse model of bleomycin-induced lung fibrosis assessed as reduction in alpha smooth muscle actin level in lung at 60 mg/kg, po pre-treated 1 hr to 1 day before bleomycin injection and measured after 14 to 28 days by immunohistochemistry analysis
Mus musculus [3] = experiment: Antifibrotic activity in C57BL/6 mouse model of bleomycin-induced lung fibrosis assessed as reduction in cross linked collagen level in lung at 60 mg/kg, po pre-treated 1 hr to 1 day before bleomycin injection and measured after 14 to 28 days by Picro-Sirius staining based assay
Mus musculus [4] = experiment: Antifibrotic activity in C57BL/6 mouse model of bleomycin-induced lung fibrosis assessed as reduction in collagen level in lung at 60 mg/kg, po pre-treated 1 hr to 1 day before bleomycin injection and measured after 14 to 28 days by hydroxyproline assay
Mus musculus [5] = experiment: Antifibrotic activity in C57BL/6 mouse model of bleomycin-induced lung fibrosis assessed as reduction in cross linked collagen level in lung at 60 mg/kg, po pre-treated 1 hr to 1 day before bleomycin injection and measured after 14 to 28 days by Masson's trichrome staining based assay

Measured: Activity

NCc1cc(Oc2cccc(C(=O)N3CCN(c4ccccc4)CC3)c2)ncn1
active: all assays above

NCc1cc(Oc2cccc(C(=O)NCc3ccnc(Cl)c3)c2)ncn1
active: all assays above
